# Measurements reported in patent US20200352912A1, “ANTIMICROBIAL COMPOSITIONS AND METHODS OF USING THE SAME” (The Board Of Supervisors Of Louisiana State University And …, priority 2018, published 2020).
# “Also recorded” adds a separate entry of the source.
# Assays:
# [1] = test system: S. aureus in polymicrobial biofilms; conditions: 1,600 μg/ml; cited from earlier work
# [2] = test system: C. albicans and S. aureus; conditions: mouse, in vivo; cited from earlier work
# S. aureus NRS383 = assay: planktonic antimicrobial assay (OD600 growth); type: cell-based, Staphylococcus aureus; conditions: 100 μg/ml (inhibitor-specific concentrations b175), OD600 up to 24 h
# Description: Effect of COX enzyme inhibitors or PGE2 EP receptor antagonists on microbial growth. The antimicrobial activity of selective COX enzyme inhibitor or PGE2 EP receptor antagonist on the growth of C. albicans DAY185 (A), S. aureus NRS383 (B) and MRSA and MSSA clinical isolates (C). Growth of C. albicans and S. aureus was monitored for up to 24 h in medium alone or supplemented with DMSO or EP receptor antagonists or COX enzyme inhibitor at physiologically relevant concentrations. Data shown are representative of three independent experiments.
# C. albicans and S. aureus were grown as described above. […] Cells were grown with shaking as described above, and 1 ml aliquots were removed each hour in duplicate and optical density at 600 nm measured (OD600) by spectrophotometer (Biomate 3S, Thermo Scientific).
# [3] = test system: C. albicans and S. aureus; assay: mouse C. albicans-S. aureus polymicrobial intra-abdominal infection; type: in vivo, mice
# Description: Effect of inhibition of EP4 receptor signaling on survival. Mice received either vehicle or EP4 receptor antagonist at a dose of 10 mg/kg by i.p. injection as indicated in Materials and Methods. Mortality was assessed using Kaplan Meier test (***P<0.001; n=20/group) compared to control groups. Data shown are representative of three replicate experiments.
# The mouse peritonitis/intra-abdominal model was performed as previously described (8). In brief, for MRSA peritonitis, mice were injected intraperitoneally (i.p.) with 4×10^6 CFU or 5×10^6 CFU or 2×10^7 CFU of S. aureus in 0.2 ml of PBS containing 3% hog gastric mucin type III (Sigma Aldrich). Mice injected i.p. with 0.2 ml of mucin/PBS served as a negative infection control. For the intra-abdominal infection with C. albicans and S. aureus, mice were injected i.p. with 7×10^6 CFU of C. albicans and 8×10^7 CFU of S. aureus (8.7×10^7 CFU total) in 0.2 ml of PBS. After inoculation, mice were observed over 10 days for signs of morbidity (hunched posture, inactivity, lethargy, and ruffled fur) and mortality. […] In the MRSA peritonitis experiments, mice were sacrificed at 24 or 48 h post-inoculation to assess microbial burden. Peritoneal cavities were lavaged by injection of 2 ml of sterile PBS followed by gentle massaging of the peritoneal cavity. Peritoneal lavage fluid then was removed using a pipette inserted into a small incision in the abdominal cavity. Spleens were removed, weighed, and mechanically homogenized prior to CFU analysis. Microbial burdens in the peritoneal lavage fluid and spleen were enumerated as described above.
# Each inhibitor was prepared fresh as a concentrated stock (20-25 mg/ml) in DMSO and diluted to a working concentration of […] in sterile PBS (final DMSO concentration, 2.3%). A sham treatment containing only 2.3% DMSO in PBS was also prepared. For the MRSA peritonitis study, the EP4 receptor antagonist was administered 2 h after S. aureus inoculation and once daily thereafter until day 4 post inoculation. For the IAI co-infection study, COX inhibitor or vehicle control was administered 4 h prior to and 4 and 8 h after inoculation with C. albicans and S. aureus while the EP receptor antagonists were administered daily starting 1 day prior to and 5 days after infection. All other procedures were performed as described above. Control groups received the vehicle at the same dose interval.
# In a final set of experiments, we evaluated the ability of L-161, 982 to reduce lethality in co-infected mice. Mice co-inoculated with the standard 7×106 C. albicans CFU and 8×107 S. aureus CFU (8.7×10^7 CFU total) were treated with L-161, 982 (10 mg/kg) 2 h post infection and once daily afterwards until day 5. […]
smiles,measurement,setting,value
CN[C@H](CC(C)C)C(=O)N[C@H]1C(=O)N[C@@H](CC(N)=O)C(=O)N[C@H]2C(=O)N[C@H]3C(=O)N[C@H](C(=O)N[C@H](C(=O)O)c4cc(O)cc(O)c4-c4cc3ccc4O)[C@H](O)c3ccc(c(Cl)c3)Oc3cc2cc(c3O[C@@H]2O[C@H](CO)[C@@H](O)[C@H](O)[C@H]2O[C@H]2C[C@](C)(N)[C@H](O)[C@H](C)O2)Oc2ccc(cc2Cl)[C@H]1O [vancomycin],viability of S. aureus in polymicrobial biofilms,[1],no effect on viability
COc1ccc2c(c1)c(CC(=O)O)c(C)n2C(=O)c1ccc(Cl)cc1 [indomethacin],mortality of co-infected mice,[2],prevented mortality
CC(C(=O)Nc1cc(C#N)ccc1CCCC(=O)O)c1ccc(F)c2ccccc12 (centres unmarked) [ONO AE3 208],growth of S. aureus,S. aureus NRS383,no antimicrobial effect
same,effect on survival,[3]; 10 mg/kg i.p.,no effect; also recorded: did not enhance survival
same,antimicrobial effect on S. aureus in vivo,"[3]; mouse, in vivo",no antimicrobial effect
